Experimental data published in US12522572B2, “Isoxazole hydroxamic acids as histone deacetylase 6 inhibitors” (The George Washington University, A Congressionally …, priority 2017, dated 2026).
Entries after “also recorded” stand apart in the source; their conditions may differ. Each block holds one compound with its values, some of them ahead of it.

Assays:
Human HDAC6 = molecular target: T1, Human HDAC6 (Homo sapiens, UniProt Q9UBN7); assay: HDAC isoform inhibition, HDAC6; type: biochemical; conditions: for IC50: duplicate 10-dose IC50 mode, 3-fold serial dilution starting at 30 μM; for Selectivity HDAC1/HDAC6: ratio of HDAC1 IC50 to HDAC6 IC50
T1 construct: Full length with N-terminal GST tag, MW=159 kDa; GST (N); host or cells: Sf9 insect cells, baculovirus expression system
T1 sequence (Q9UBN7 1-1215): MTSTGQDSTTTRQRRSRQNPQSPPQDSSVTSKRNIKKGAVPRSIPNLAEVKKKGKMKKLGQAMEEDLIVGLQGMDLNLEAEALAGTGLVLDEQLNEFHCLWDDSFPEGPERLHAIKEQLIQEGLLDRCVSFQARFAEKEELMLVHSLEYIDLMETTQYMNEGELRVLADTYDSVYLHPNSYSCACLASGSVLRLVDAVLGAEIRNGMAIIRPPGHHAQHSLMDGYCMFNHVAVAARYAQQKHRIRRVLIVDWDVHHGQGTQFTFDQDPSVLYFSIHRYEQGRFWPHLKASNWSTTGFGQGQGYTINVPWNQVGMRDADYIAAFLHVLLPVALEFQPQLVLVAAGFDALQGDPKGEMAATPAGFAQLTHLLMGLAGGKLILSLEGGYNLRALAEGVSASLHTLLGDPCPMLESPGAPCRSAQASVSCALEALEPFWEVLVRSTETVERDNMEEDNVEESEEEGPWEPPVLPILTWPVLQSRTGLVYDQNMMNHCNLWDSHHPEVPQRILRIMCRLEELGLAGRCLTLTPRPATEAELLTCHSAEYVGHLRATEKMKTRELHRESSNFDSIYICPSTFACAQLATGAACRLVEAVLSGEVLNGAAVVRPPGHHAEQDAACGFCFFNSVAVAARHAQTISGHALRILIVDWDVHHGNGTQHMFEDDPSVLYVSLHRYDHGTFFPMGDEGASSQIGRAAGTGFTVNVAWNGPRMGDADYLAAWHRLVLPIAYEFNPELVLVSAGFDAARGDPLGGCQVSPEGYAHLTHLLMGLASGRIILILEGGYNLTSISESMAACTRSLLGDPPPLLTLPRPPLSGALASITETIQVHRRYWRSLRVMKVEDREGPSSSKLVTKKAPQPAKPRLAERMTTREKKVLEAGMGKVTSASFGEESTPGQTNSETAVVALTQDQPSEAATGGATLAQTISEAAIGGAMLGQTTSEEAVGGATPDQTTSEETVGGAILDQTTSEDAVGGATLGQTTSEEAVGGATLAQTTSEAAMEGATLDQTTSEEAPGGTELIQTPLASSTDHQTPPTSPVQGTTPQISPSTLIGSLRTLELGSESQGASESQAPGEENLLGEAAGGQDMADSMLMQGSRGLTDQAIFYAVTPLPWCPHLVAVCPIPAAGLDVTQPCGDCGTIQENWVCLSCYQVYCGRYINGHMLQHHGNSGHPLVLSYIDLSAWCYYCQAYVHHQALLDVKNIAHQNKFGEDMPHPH

Human HDAC1 = molecular target: T2, Human HDAC1 (Homo sapiens, UniProt Q13547); assay: HDAC isoform inhibition, HDAC1; type: biochemical; conditions: duplicate 10-dose IC50 mode, 3-fold serial dilution starting at 30 μM
T2 construct: Full length with C-terminal GST tag, MW=79.9 kDa; GST (C); host or cells: Sf9 insect cells, baculovirus expression system
T2 sequence (Q13547 whole entry, canonical isoform): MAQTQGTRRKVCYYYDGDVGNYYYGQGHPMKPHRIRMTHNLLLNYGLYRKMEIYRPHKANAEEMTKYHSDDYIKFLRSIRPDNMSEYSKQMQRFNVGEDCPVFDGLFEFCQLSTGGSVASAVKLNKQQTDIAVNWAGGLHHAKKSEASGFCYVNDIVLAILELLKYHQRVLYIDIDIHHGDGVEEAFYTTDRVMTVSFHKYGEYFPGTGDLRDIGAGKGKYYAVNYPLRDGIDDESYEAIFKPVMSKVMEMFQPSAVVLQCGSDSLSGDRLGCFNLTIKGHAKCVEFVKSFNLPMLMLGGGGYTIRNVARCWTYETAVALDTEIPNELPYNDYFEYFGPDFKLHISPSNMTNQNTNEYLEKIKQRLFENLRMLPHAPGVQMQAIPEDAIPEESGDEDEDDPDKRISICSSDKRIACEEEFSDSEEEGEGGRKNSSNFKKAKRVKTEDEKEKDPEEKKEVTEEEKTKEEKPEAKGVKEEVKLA

SM1 melanoma tumor = assay: Syngeneic SM1 murine melanoma tumor model; type: in vivo, C57/BL/6 mice; conditions: 25 mg/kg and 50 mg/kg intraperitoneally, three times a week
Description: Animal experiments involving mice were performed in accordance to all approved protocols by the IACUC at The George Washington University. C57/BL/6 mice were obtained from Charles River (Massachusetts-Wilmington, USA). Mice for the in vivo tumor studies were subcutaneously injected in the right flank with 1.0×10^6 SM1 melanoma cells suspended in 100 μL 1× Phosphate Buffer Saline (PBS). After subcutaneous injection, tumor growth was monitored until they became palpable. Once palpable (5-8 mm in diameter), the animals were then treated with a vehicle control, or SS-2-08 at a dose of 25 mg/kg and 50 mg/kg, intraperitoneally, three times a week. Tumor growth was recorded twice a week. When the tumors reached 4000 mm^3, mice were euthanized. The values collected are represented as the mean tumor volume (mm^3) and standard deviation for treatment groups.

[1] = test system: Salmonella typhimurium (TA98 and TA1537); assay: Mini-Ames test; type: cell-based; conditions: two Salmonella typhimurium strains, presence and absence of S9 mix
Description: […]. SS-2-08 was incubated with two strains of Salmonella typhimurium (TA98 and TA1537) in the presence and absence of mammalian microsomal enzymes (S9 mix) to investigate the possible mutagenicity of this compound. […].

[2] = Liver microsomal stability, human; type: in vitro ADME; conditions: human liver microsomes
[3] = test system: Human melanoma WM164 cells; assay: HDAC assay in WM164 cells; type: cell-based; conditions: different concentrations
hERG = hERG (Homo sapiens, UniProt Q12809); assay: cell-based
Chain of hERG (Q12809 whole entry): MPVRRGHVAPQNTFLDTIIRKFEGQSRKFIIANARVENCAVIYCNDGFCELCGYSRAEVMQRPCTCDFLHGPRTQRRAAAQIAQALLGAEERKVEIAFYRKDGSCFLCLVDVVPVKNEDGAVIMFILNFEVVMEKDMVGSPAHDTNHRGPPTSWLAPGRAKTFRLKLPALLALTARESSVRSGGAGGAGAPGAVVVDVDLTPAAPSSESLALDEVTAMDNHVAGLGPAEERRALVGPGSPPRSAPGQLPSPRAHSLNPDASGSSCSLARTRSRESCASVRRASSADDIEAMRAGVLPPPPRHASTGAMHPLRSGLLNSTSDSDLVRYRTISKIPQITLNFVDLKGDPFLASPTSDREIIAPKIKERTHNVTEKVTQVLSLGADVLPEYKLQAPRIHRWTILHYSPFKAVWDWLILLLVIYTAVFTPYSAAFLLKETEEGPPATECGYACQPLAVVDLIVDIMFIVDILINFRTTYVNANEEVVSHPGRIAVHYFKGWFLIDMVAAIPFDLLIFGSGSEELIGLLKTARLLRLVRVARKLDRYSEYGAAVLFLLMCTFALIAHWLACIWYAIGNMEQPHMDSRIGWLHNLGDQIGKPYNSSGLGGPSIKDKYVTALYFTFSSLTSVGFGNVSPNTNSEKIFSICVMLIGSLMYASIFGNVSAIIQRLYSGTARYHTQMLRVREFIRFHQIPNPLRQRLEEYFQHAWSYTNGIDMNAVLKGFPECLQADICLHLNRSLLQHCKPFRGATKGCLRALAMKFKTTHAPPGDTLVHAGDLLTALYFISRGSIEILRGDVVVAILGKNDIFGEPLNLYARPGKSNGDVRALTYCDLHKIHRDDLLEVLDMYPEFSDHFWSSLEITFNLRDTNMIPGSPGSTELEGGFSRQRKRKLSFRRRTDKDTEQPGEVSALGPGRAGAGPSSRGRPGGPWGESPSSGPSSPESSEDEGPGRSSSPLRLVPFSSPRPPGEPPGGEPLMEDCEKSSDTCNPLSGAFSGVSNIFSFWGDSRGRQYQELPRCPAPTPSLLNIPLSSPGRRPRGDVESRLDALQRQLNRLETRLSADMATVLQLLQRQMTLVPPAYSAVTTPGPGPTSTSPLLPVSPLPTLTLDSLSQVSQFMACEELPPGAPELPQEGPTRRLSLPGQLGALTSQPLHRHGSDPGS

[4] = test system: Murine melanoma SM1 cells; assay: ApoTox-Glo Triplex Assay, apoptosis; type: cell-based
Description: Murine melanoma SM1 cells were cultured in RPMI 1640 medium supplemented with: 1% minimum essential medium (MEM) non-essential amino acids solution, 10% fetal bovine serum (FBS), and 1% penicillin-streptomycin (P/S) then grown under humidified conditions at 37° C. and 5% CO2.
The assay controls—Digitonin (D141-100MG), Ionomycin (I064-1MG) and Mitomycin C (M4287-2MG)—were purchased from Sigma. Through a control plate evaluation, the optimal control concentration was selected for HDACi on the compound plates—30 μg/mL Digitonin, 100 μM Ionomycin, and 25 μg/mL Mitomycin.
Murine melanoma cells were treated with individual HDACi along with the protocol recommended assay controls. Following the manufacturers protocol, Viability/Cytotoxity reagents were added—fluorescence was measured at […] 400Ex/505Em (viability) and 485Ex/520Em (cytotoxicity). Next, the Caspase 3/7 reagent was added, after incubation, luminescence was measured at Lm578 (apoptosis). Assay measurements were collected using the SpectraMax. During analysis, LBH is used as the control compound.

[5] = test system: Human melanoma WM164 cells; assay: Cytotoxicity assay (CellTox) in WM164 cells; type: cell-based; conditions: different concentrations, 24 hour reading
Description: All cells were cultured in RPMI 1640 media, supplemented with 10% FBS, penicillin/streptomycin (50 U/ml), L-glutamine (2 mM), and 2-mercaptoethanol ([…]) (complete media), and grown under humidified conditions at 37° C. and 5% CO2.
Cells were plated at a desired density in a black, flat clear bottom, 96 well plate. After 24 hours of cell growth, the media was removed from all the wells, fresh media was added with the fluorescent CellTox dye, using the manufactured protocol. The plate was then treated with the compounds of interest at the various concentrations of the compound. Immediately after plating, a baseline reading was performed. The plate was then incubated for 24 hours before the next reading was done, which was considered the 24 hour reading. Assay measurements were collected using the SoftMax Pro Microplate Data Acquisition and Analysis Software paired with Molecular Devices spectrophotometer (SpectraMax).
Human melanoma WM164 cells were treated with different concentrations SS-2-08 and SS-01-100 to evaluate the HDAC activity associated with the potential cytotoxic effect of these compounds.

[6] = Hepatocyte stability, human; type: in vitro ADME; conditions: human hepatocytes
[7] = Liver microsomal stability, mouse; type: in vitro ADME; conditions: mouse liver microsomes
[8] = Hepatocyte stability, mouse; type: in vitro ADME; conditions: mouse hepatocytes
[9] = test system: Human melanoma WM164 cells; assay: Immunoblot of acetylated tubulin in WM164 cells; type: cell-based; conditions: different concentrations, presence or absence of IL-6 (30 ng/uL) or IFNg (100 ng/uL)
Description: Human Melanoma cells WM164 were cultured in RPMI 1640 media, supplemented with 10% FBS, penicillin/streptomycin (50 U/ml), L-glutamine (2 mM), and 2-mercaptoethanol (50 μM) (complete media), and grown under humidified conditions at 37° C. and 5% CO2.
The cells were lysed in a buffer containing 280 mM NaCl, 50 mM Tris HCL PH 8.0, 0.5% Igepal, 5 mM MgCl2, 10% glycerol and 1× protease inhibitor (Roche), phosphatase inhibitor (Santa Cruz Biotechnology). Lysates were sonicated on ice for […] (2 cycles of 30 s on, 30 s rest) and then mixed with 6× gel loading buffer and boiled for 5 minutes. Samples were then resolved on 10% or 4-15% gradient gels and transferred to nitrocellulose membranes. Membranes were blocked with 5% milk-PBS-Tween. Bands were detected by scanning blots with an LI-COR Odyssey imaging system using both 700 and 800 channels. The antibodies used for immunobloting included Anti-acetyl-α-Tubulin (SC-23950) and anti-α-Tubulin (SC-32293), which were purchased from Santa Cruz Biotechnology. Anti-HDAC6 (C0226) was from Assay Biotech. Anti-GAPDH (68795) was from Sigma Aldrich. Anti STAT3 (12640), anti P-STAT3 Y-705 (9138), anti P-STAT3 S727 (9136), and anti Acetil-STAT3 (2523) were purchased from Cell signaling. Anti PD-L1 (PA5-28115) was obtained from Thermo Scientific. Anti-FLAG (F1804) antibody was from Sigma. […]

SMILES: O=C(NCCc1cc(C(=O)NO)no1)c1ccc(Cl)c(Cl)c1 [SS-2-08, 5-(2-(3,4-dichlorobenzamido)ethyl)-N-hydroxyisoxazole-3-carboxamide]
tumor growth (SM1 melanoma tumor): reduces in vivo tumor growth | Mini-Ames test [1]: No significant number of revertant colonies; also recorded: Negative | Liver microsomal stability (t1/2 min, with NADPH) Human [2]: 2.25 h | HDAC activity [3]: reduced the HDAC activity in a dose-dependent manner | IC50 (hERG): > 30000 nM | apoptosis (Caspase 3/7) [4]: does not induce apoptosis | cytotoxicity [5]: minimal cytotoxicity effects | Hepatocyte stability (t1/2 min) Human [6]: 1.8 h | Liver microsomal stability (t1/2 min, with NADPH) Mouse [7]: 0.617 h | Hepatocyte stability (t1/2 min) Mouse [8]: 0.367 h | levels of acetylated tubulin [9]: increased

SMILES: O=C(NO)c1cc(CCCCn2ccc3cc(Cl)c(Cl)cc32)on1 [SS-3-94, 5-(4-(5,6-dichloro-1H-indol-1-yl)butyl)-N-hydroxyisoxazole-3-carboxamide]
IC50 (Human HDAC6): 693 nM | Selectivity HDAC1/HDAC6 (Human HDAC6): 16 | IC50 (Human HDAC1): 11200 nM

SMILES: O=C(NCCc1cc(C(=O)NO)no1)c1cccc(-c2ccccc2)c1 [SS-3-67, 5-(2-([1,1′-biphenyl]-3-ylcarboxamido)ethyl)-N-hydroxyisoxazole-3-carboxamide]
IC50 (Human HDAC6): 24.1 nM | Selectivity HDAC1/HDAC6 (Human HDAC6): 85 | IC50 (Human HDAC1): 2040 nM

SMILES: O=C(NO)c1cc(CCCCN2CCCc3cc(Cl)ccc32)on1 [SS-4-01, 5-(4-(6-chloro-3,4-dihydroquinolin-1(2H)-yl)butyl)-N-hydroxyisoxazole-3-carboxamide]
IC50 (Human HDAC6): 1990 nM | Selectivity HDAC1/HDAC6 (Human HDAC6): 22 | IC50 (Human HDAC1): 44000 nM

SMILES: O=C(NCCc1cc(C(=O)NO)no1)c1ccccc1 [SS-1-100, 5-(2-Benzamidoethyl)-N-hydroxyisoxazole-3-carboxamide]
IC50 (Human HDAC6): 194 nM | HDAC activity [3]: reduced the HDAC activity in a dose-dependent manner | IC50 (nM) HDAC1 (Human HDAC1): No inhibition | cytotoxicity [5]: minimal cytotoxicity effects | levels of acetylated tubulin [9]: increased

Continued by falling IC50 (Human HDAC6), values first:

IC50 (Human HDAC6): 4360 nM | Selectivity HDAC1/HDAC6 (Human HDAC6): 40 | IC50 (Human HDAC1): 174000 nM
SMILES: CC1(C)CCN(CCCCc2cc(C(=O)NO)no2)c2ccc(Cl)cc21 [SS-4-02, 5-(4-(6-chloro-4,4-dimethyl-3,4-dihydroquinolin-1(2H)-yl)butyl)-N-hydroxyisoxazole-3-carboxamide]

IC50 (Human HDAC6): 1340 nM | IC50 (nM) HDAC1 (Human HDAC1): No inhibition
SMILES: O=C(NO)c1cc(CCCCN2c3ccc(Cl)cc3CCc3cc(Cl)ccc32)on1 [SS-1-54, 5-(4-(2,8-dichloro-10,11-dihydro-5H-dibenzo[bf]azepin-5-yl)butyl)-N-hydroxyisoxazole-3-carboxamide]

IC50 (Human HDAC6): 195 nM
SMILES: O=C(NO)c1cc(CCCOc2ccc(Cl)c(Cl)c2)on1 [SS-4-10, 5-(3-(3,4-dichlorophenoxy)propyl)-N-hydroxyisoxazole-3-carboxamide]

IC50 (Human HDAC6): 10.3 nM | Selectivity HDAC1/HDAC6 (Human HDAC6): 294 | IC50 (Human HDAC1): 3030 nM
SMILES: O=C(NCCc1cc(C(=O)NO)no1)c1ccc2ccccc2c1 [SS-3-66, 5-(2-(2-naphthamido)ethyl)-N-hydroxyisoxazole-3-carboxamide]
